Earlier results on 14 compounds are cited in patent US20030035827A1, “Pharmaceutical compositions containing substrates of enabling enzymes to preferentially deliver drugs away from PBVC or GIC systems” (priority 2001, published 2003).

Read-outs that look alike come from different tables or passages of the source.

The target of this data set is pseudocholinesterase, plasma cholinesterase or butyrocholinesterase (PCE) (Homo sapiens, UniProt P06276).
Where [1] appears, read: substrate of PCE, previous experiments.
The mark [2] stands for this setting: substrate of PCE, previous experiments, read-out: Km.

pseudocholinesterase, plasma cholinesterase or butyrocholinesterase (PCE), sequence (P06276 29-602): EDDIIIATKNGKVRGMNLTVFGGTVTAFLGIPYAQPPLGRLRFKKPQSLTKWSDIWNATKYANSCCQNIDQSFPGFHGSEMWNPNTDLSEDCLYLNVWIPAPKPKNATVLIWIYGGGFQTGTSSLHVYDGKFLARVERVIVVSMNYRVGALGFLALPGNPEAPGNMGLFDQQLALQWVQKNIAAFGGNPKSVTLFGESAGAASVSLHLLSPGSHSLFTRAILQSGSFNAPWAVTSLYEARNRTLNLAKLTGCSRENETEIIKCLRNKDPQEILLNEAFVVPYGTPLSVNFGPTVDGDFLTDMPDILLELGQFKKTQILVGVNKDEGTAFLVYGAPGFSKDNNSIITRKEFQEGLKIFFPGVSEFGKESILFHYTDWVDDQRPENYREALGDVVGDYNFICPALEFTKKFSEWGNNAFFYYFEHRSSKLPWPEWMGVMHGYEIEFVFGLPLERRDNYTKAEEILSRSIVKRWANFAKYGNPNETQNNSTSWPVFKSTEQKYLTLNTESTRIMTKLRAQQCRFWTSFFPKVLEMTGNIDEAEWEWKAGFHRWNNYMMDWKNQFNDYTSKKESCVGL

On to `CC(=O)OCC[N+](C)(C)C` [Acetylcholine], for which the Km – broadly, the substrate concentration at which the rate is half of its maximum – under setting [1] is 9,000 uM. Turning to `CC(=O)Oc1ccccc1C(=O)O` [Aspirin], under setting [1], the Kcat is reported as 7,200/min and the Km was 1,600 uM. Turning to `C[N+](C)(C)CCOC(=O)c1ccccc1` [Benzoylcholine], under setting [1], the Kcat is 15,000/min. The Km under setting [2] was 22 µM. For `CCCC(=O)OCC[N+](C)(C)C` [Butyrylcholine], the Kcat under setting [1] is 80,000/min. Besides, the Km under setting [2] is 1700 µM.

In the case of `CCCC(=O)SCC[N+](C)(C)C` [Butyrylthiocholine], the Kcat under setting [1] is on record as 30,000/min. Regarding `CCCCCCC(=O)OCC[N+](C)(C)C` [Hepanoylcholine], the Kcat is listed as 35,000/min. Also, the Km (read-out: Km) is 1110 µM. In the case of `CC(=O)Oc1ccc2c3c1O[C@H]1[C@@H](OC(C)=O)C=C[C@H]4[C@@H](C2)N(C)CC[C@@]341` [Heroin], the Km is 450 µM. Further, the Kcat under setting [1] is 500 min⁻¹. As for `CCCCCC(=O)OCC[N+](C)(C)C` [Hexanoylcholine], the Km (read-out: Km) is 820 µM. Besides, the Kcat under setting [1] is given as 36,000/min. Consider `CCCC(=O)Oc1ccccc1[N+](=O)[O-]` [O-Nitrophenylbutyrate], for which the Kcat is recorded as 48,000/min. The Km (read-out: Km) was 400 µM. As to `CCCCC(=O)OCC[N+](C)(C)C` [Pentanoylcholine], the Km (read-out: Km) was 1500 µM. The Kcat under setting [1] is 63,000/min.

Consider `CCN(CC)CCOC(=O)c1ccc(N)cc1` [Procaine], for which the Michaelis-Menten constant (Km) was 100 µM. For the same compound, the Kcat under setting [1] was 255 min⁻¹. Regarding `CCC(=O)OCC[N+](C)(C)C` [Propionylcholine], the Kcat under setting [1] is given as 55,000/min. Under setting [2], the Km is 3100 µM. As to `CCCCNc1ccc(C(=O)OCCN(C)C)cc1` [Tetracaine], under setting [1], the Kcat is 74 min⁻¹ and the Km was 8 µM.

With Succinyldithiocholine, the Kcat under setting [1] is 600 min⁻¹. The Km under setting [2] was 1080 µM.
